Values of other authors in patent US20080317725A1, “COMPOSITIONS AND METHODS OF TREATING CHRONIC KIDNEY DISEASE” (priority 2007, published 2008).

Columns and labels:
[1] = administered in large doses
[2] = test system: subjects undergoing dialysis; conditions: vitamin A intake of about 15,000 IU

CC(=O)N[C@@H](CS)C(=O)O [NAC, N-acetyl cysteine]
side effect [1]: cause nausea

vitamin A
toxicity of vitamin A intake [2]: produce vitamin A toxicity and correlate with hypercalcaemia

C=C1CC[C@H](O)C/C1=C/C=C1\CCC[C@]2(C)[C@@H]([C@H](C)/C=C/[C@H](C)C(C)C)CC[C@@H]12 [vitamin D2, ergocalciferol]
vitamin D activity in humans relative to vitamin D3 (humans): about 1.7 times less than D3
